Values after ≈ are worked out from the molar mass of the structure shown.

What all share (test): Microbiological minimum inhibitory concentration test (agar dilution)
What all share (type): cell-based
In general terms: In agar dilution, organisms are placed on agar that contains the substance at set levels.

Test [1] has as its system Candida albicans ATCC 10231. The conditions noted are these: ATCC10231, Mycophil Agar with low pH, 32° C., growth read at 24 and 48 hours and 7 days, read-out: MIC (minimal inhibitory concentration). The procedure:
(§1) The antifungal activity of the polyfluorinated substituted quinoline mono- and dioxo compounds was determined according to the following procedure:
(§2) MICROBIOLOGICAL MINIMUM INHIBITORY CONCENTRATION TEST
Candida albicans ATCC 10231
(§3) Mycophil Agar with low pH
(§4) A 0.5 mg/ml stock solution of each compound was volumetrically prepared in an appropriate solvent From this stock, 1:2 serial dilutions were prepared in sterile distilled water. Two ml aliquots of the stock and serial dilutions were added to tubes containing 18 ml of mycophil agar (46°-50° C.). Mixtures were poured into square 100×15 mm petri dishes and allowed to solidify.
(§5) All test organisms, except Candida albicans were harvested from six day mycophil agar slants. Candida albicans was diluted from a frozen stock culture. Inocula were diluted with sterile saline to contain approximately 1×10^8 CFUs per ml. Plate counts were performed on 1 ml of all inocula.
(§6) Each plate and appropriate solvent and unadulterated agar growth control was inoculated in duplicate with the inocula prepared above using a Steer's Replicator method.
(§7) Plates were then incubated at 32° C. Observations for growth were made at 24 and 48 hours and 7 days.
(§8) These MIC data are found in Table I.

The subject of test [2] is Microsporum gypseum ATCC 14683. The conditions noted are these: Nannizzia gypsea, ATCC14683, Mycophil Agar with low pH, 32° C., growth read at 24 and 48 hours and 7 days, read-out: MIC (minimal inhibitory concentration). The procedure: as §1, §2
Microsporum gypseum ATCC 14683
as §3, §4, §5, §6, §7, §8

For test [3], the system named is Trichophyton rubrum ATCC 10218. The following applies: ATCC10218, Mycophil Agar with low pH, 32° C., growth read at 24 and 48 hours and 7 days, read-out: MIC (minimal inhibitory concentration). The procedure:
as §1, §2
Trichophyton rubrum ATCC 10218
as §3, §4, §5, §6, §7, §8

In test [4] the test system is Trichophyton mentagrophytes ATCC 22839. The following applies: ATCC22839, Mycophil Agar with low pH, 32° C., growth read at 24 and 48 hours and 7 days, read-out: MIC (minimal inhibitory concentration). How it is done: as §1, §2
Trichophyton mentagrophytes ATCC 22839
as §3, §4, §5, §6, §7, §8

Test [5] concerns Microsporum canis JJP #143. The following applies: Mycophil Agar with low pH, 32° C., growth read at 24 and 48 hours and 7 days, read-out: MIC (minimal inhibitory concentration). The procedure:
as §1, §2
Microsporum canis JJP #143
as §3, §4, §5, §6, §7, §8

Test [6] deals with Epidermophyton floccosum ATCC 15693. The conditions noted are these: ATCC15693, Mycophil Agar with low pH, 32° C., growth read at 24 and 48 hours and 7 days, read-out: MIC (minimal inhibitory concentration). How it is done:
as §1, §2
Epidermophyton floccosum ATCC 15693
as §3, §4, §5, §6, §7, §8

In the case of `Cn1c(=O)c2cc3c(F)c(F)c(F)c(F)c3nc2n(C)c1=O` [I, 5,6,7,8-Tetrafluoro-1,3-dimethylpyrimidinol[6,5-b]quinolin-2,4-dione], the MIC in test [1] was found to be 50 mg/L (≈ 160 µM); in test [2] it was 4.6 mg/L (≈ 14.7 µM); in test [3], 1.6 mg/L (≈ 5.11 µM); in test [4], 25 mg/L (≈ 79.8 µM); in test [5], 25 mg/L (≈ 79.8 µM); in test [6], 0.39 mg/L (≈ 1.25 µM).

With `CC1(C)CC(=O)c2cc3c(F)c(F)c(F)c(F)c3nc2C1` [II, 5,6,7,8-Tetrafluoro-2,2-dimethylbenzo[2,1-b]quinolin-4-one], the MIC amounted to 50 mg/L (≈ 168 µM) in test [1]; 9.4 mg/L (≈ 31.6 µM) in test [2]; 6.2 mg/L (≈ 20.9 µM) in test [3]; 6.2 mg/L (≈ 20.9 µM) in test [4]; 25 mg/L (≈ 84.1 µM) in test [5]; 1.5 mg/L (≈ 5.05 µM) in test [6].
